B1: EPCR-LBPA: purified soluble EPCR loaded with LBPA by lipid exchange (protein, UniProt Q9UNN8 18-210, looked up)
extracellular domain: SQDASDGLQRLHMLQISYFRDPYHVWYQGNASLGGHLTHVLEGPDTNTTIIQLQPLQEPESWARTQSGLQSYLLQFHGLVRLVHQERTLAFPLTIRCFLGCELPPEGSRAHVFFEVAVNGSSFVSFRPERALWQADTQVTSGVVTFTLQQLNAYNRTRYELREFLEDTCVQYVQKHISAENTKGSQTSRSYTS
modifications: extracellular domain loaded with LBPA lipid
notes: purified soluble EPCR loaded with LBPA by lipid exchange

Legend:
[1] = system: EPCR^C/S pDC; experiment: Mouse pDC and B cell co-culture with R848 and aPL HL5B, anti-cardiolipin titers; type: cell-based; settings: co-cultures with EPCR^C/S pDC
Description: (A) Gbp2 mRNA induction after 1 hour stimulation with HL5B, HL7G, or LPS (100 ng/ml) in EPCR^C/S or WT monocytes with or without addition of LBPA. (B) WT monocytes were stimulated for 1 hour with IgG isolated from MRL/lpr lupus-prone or control MRL mice in the presence of the indicated antibodies to EPCR. (C) Human monocyte-derived DC were co-cultured with B cells in the presence of TLR7/8 agonist R848 and aPL HL5B with the indicated antibodies to human EPCR. Anti-cardiolipin titers were determined after 10 days. (D-F) Co-cultures of isolated spleen plasmacytoid dendritic cells (pDC) and B cells from the indicated mouse strains were co-cultured with Tlr7 agonist R848 and aPL HL5B for 10 days, followed by determination of anti-cardiolipin titers. IFNR^−/−, type I interferon receptor deficient mice.
Supporting this conclusion, anti-cardiolipin antibody production was absent when mouse pDC, but not B cells, were isolated from EPCR^C/S mice (FIG. 9D). Addition of LBPA or interferon a restored the expansion of anti-cardiolipin producing B cells in co-cultures with aPL signaling-deficient EPCR^C/S pDC (FIG. 9D). In contrast, cells deficient in LRP8, the receptor for β2GPI, produced anti-cardiolipin antibodies normally in response to co-stimulation of aPL and Tlr7 agonist (FIG. 9E).

[2] = system: EPCR^C/S monocytes; experiment: Lipid supplementation and aPL signalling in EPCR^C/S monocytes; type: cell-based, mouse; settings: 10 μM
Description: (A) Effect of aPL HL5B, aPL HL7G, and αEPCR antibodies on EPCR-dependent aPC generation on murine microvascular endothelial cells. (B) Effect of anti-mouse EPCR antibodies 1682 and 1650 on Tnfα mRNA induction by aPL HL5B and HL7G; mean±SD, n=6. * p<0.0001; one-way ANOVA, Dunnett multiple-comparison. (C) Effect of αEPCR on aPL HL5B and HL7G internalization in CD115+ splenocytes. Bar=5 μm. (D) Flow cytometry detection of FXa and EPCR on CD115+ spleen monocytes isolated from indicated mouse strains. (E) Effect of pre-treatment with 10 μM LBPA for 10 min on surface binding of αEPCR 1682 and αLBPA 6C4 on indicated monocytes; mean±SD, n=6. * p<0.003; multiple t-tests. (F) Competition of αEPCR 1650 and 1682 with binding of FITC-labelled anti-LBPA antibody 6C4 to mouse CD115+ splenocytes. (G) Competition of αLBPA 6C4 with binding of αEPCR 1682 to mouse monocytes. (H) Effect of LBPA, cardiolipin (CL), and phosphatidylserine (PS) (10 μM) on aPL HLSB signalling in EPCR^C/S monocytes. Induction of TNF after 3 hours is shown; mean±SD, n=6. (I) LBPA loading of purified mouse or human sEPCR evidenced by faster mobility on native gels. (J) Surface plasmon resonance analysis of aPL HLSB binding to purified human sEPCR or sEPCR-LBPA. The affinity calculation was based on a monovalent binding model because no cooperative binding was evident.
(A) TNFα mRNA induction after 2 hours by HLSB is prevented in Alix-deficient trophoblast cells; mean±SD, n=6. * p<0.0001; t-test following Shapiro-Wilk test for normal distribution. (B, C) Proximity ligation assays (PLA) for ASM and EPCR on scrambled control JARs or ALIX−/− cells after 10 minutes of stimulation with HLSB (B) or thrombin (C) with or without LBPA loading. Bar=25 μm. (D) aPL internalization in ALIX deficient JAR cells and signalling in EPCR^C/S monocytes (E) was restored by adding 10 μM LBPA (S,R) but not by other phospholipids. (F) Pregnancy loss was scored at day 15.5 p.c. after injection of aPL HLSB on days 8 and 12. * p<0.02; one-way ANOVA, Dunnett multiple-comparison test. […]

[3] = system: ALIX^−/− trophoblast cells; experiment: aPL HL5B binding to ALIX-deficient trophoblast (JAR) cells after adding phospholipids; type: cell-based, human; settings: 10 μM lipid added
Description: (A) TNFα mRNA induction after 2 hours by HLSB is prevented in Alix-deficient trophoblast cells; mean±SD, n=6. * p<0.0001; t-test following Shapiro-Wilk test for normal distribution. (B, C) Proximity ligation assays (PLA) for ASM and EPCR on scrambled control JARs or ALIX−/− cells after 10 minutes of stimulation with HLSB (B) or thrombin (C) with or without LBPA loading. Bar=25 μm. (D) aPL internalization in ALIX deficient JAR cells and signalling in EPCR^C/S monocytes (E) was restored by adding 10 μM LBPA (S,R) but not by other phospholipids. (F) Pregnancy loss was scored at day 15.5 p.c. after injection of aPL HLSB on days 8 and 12. * p<0.02; one-way ANOVA, Dunnett multiple-comparison test. (G) Schematic representation of aPL signalling leading to thrombosis or pregnancy complications.
Human ALIX^−/− trophoblast cells and murine EPCR^C/S monocytes provided tools to compare the species conservation of lipid presentation by EPCR. Only addition of S/R 18:1 LBPA and R/R 18:1 LBPA, but not S/S 18:1 LBPA or semi-S/R LBPA restored aPL HL5B binding to ALIX^−/− trophoblast cells (FIG. 7D) or signaling in EPCR^C/S monocytes (FIG. 7E). Thus, human and mouse EPCR present LBPA with the same selectivity, providing an explanation for the remarkable species cross-reactivity of pathogenic aPL.

[4] = system: acidic sphingomyelinase (ASM); experiment: ASM activity in unstimulated cell lysates after addition of sEPCR-LBPA; type: biochemical
Description: (A) aPL-mediated TF activation, PS exposure measured by annexin 5 staining, ROS production and TNFα induction as well as (B) aPL internalization in MM1 cells was blocked by sphingomyelinase inhibitor desipramine. Bar=5 μm. (C) aPL-induced ASM activity in MM1 cells is blocked by inhibitors of FXa, thrombin, and PAR1 cleavage. (D) Live cell imaging of surface ASM exposure in MM1 cells after 30 minutes of stimulation with Fab′2 aPL HLSB. Bar=5 μm. (E) ASM activity in unstimulated cell lysates after addition of sEPCR-LBPA (2.504) is blocked by αEPCR 1682. For all ASM activity assays: mean±SD, n=3. * p<0.0003; one-way ANOVA, Dunnett multiple-comparison test. […] (G, H) Thrombosis induction by dual reactive aPL HL7G in the indicated mouse strains or WT mice in presence of indicated αEPCR. (F-H) Quantification of thrombus size 3 hours after aPL injection; median, interquartile range, and range; n=6-11; * p <0.004; one-way ANOVA, Dunnett multiple-comparison test compared to αEPCR 1650. (I, J) Thrombosis induction by aPL HLSB (I) or IgG isolated from age-matched 16 weeks old lupus-prone MRL/lpr and MRL control mice (J) in the indicated mouse strains. Quantification of thrombus size 3 hours after aPL injection; median, interquartile range, and range; (I) n=6-10; * p=0.001; unpaired t-test. (J) n=5; * p=0.0025; two-way ANOVA, Sidak's multiple comparisons test.
ASM requires LBPA for activity (33). […]

Row | Molecule | expansion of anti-cardiolipin producing B cells [1] | aPL signaling in EPCR^C/S monocytes after adding LBPA isomers [2] | aPL HL5B binding to ALIX^−/− trophoblast cells [3] | induction of ASM activity in cell lysates of unstimulated cells [4]
1 | interferon a | restored |  |  | 
2 | S/R 18:1 LBPA |  | restored | restored | 
3 | R/R 18:1 LBPA |  | restored | restored | 
4 | B1 |  |  |  | efficiently induced ASM activity

From patent US20230043394A1, “METHODS FOR DETECTION OF PATHOGENIC ANTIPHOSPHOLIPID ANTIBODIES AND FOR IDENTIFICATION OF INHIBITORS” (UNIVERSITÄTSMEDIZIN DER JOHANNES GUTENBERG-UNIVERSITÄT MAINZ, priority 2019, published 2023)
